The record followed here is US20240409585A1, “MACROCYCLIC IMMUNOMODULATORS” (priority 2021, published 2024).

Each structure is given as a SMILES string. Bridge positions count the residues as written; N and C are the ends. Square brackets hold non-standard residues; d marks the D form. Peptide text beside a SMILES is read from it. * marks the point of attachment. Bip(4'-COOH) = N[C@@H](Cc1ccc(-c2ccc(C(=O)O)cc2)cc1)C(=O)O; Bip(4'-NHAc) = CC(=O)Nc1ccc(-c2ccc(C[C@H](N)C(=O)O)cc2)cc1; Phe(3-OCH2COOH) = N[C@@H](Cc1cccc(OCC(=O)O)c1)C(=O)O; Phe(3,4-Cl2) = N[C@@H](Cc1ccc(Cl)c(Cl)c1)C(=O)O; Phe(3-CF3) = N[C@@H](Cc1cccc(C(F)(F)F)c1)C(=O)O; Ala(morpholin-4-yl) = N[C@@H](CN1CCOCC1)C(=O)O; Phe(4-CONH2) = NC(=O)c1ccc(C[C@H](N)C(=O)O)cc1; Phe(4-COOH) = N[C@@H](Cc1ccc(C(=O)O)cc1)C(=O)O; Bip = N[C@@H](Cc1ccc(-c2ccccc2)cc1)C(=O)O; Phe(3-I) = N[C@@H](Cc1cccc(I)c1)C(=O)O; Phe(3-Me) = Cc1cccc(C[C@H](N)C(=O)O)c1; Abu(3S-NH2) = C[C@H](N)[C@H](N)C(=O)O; hPhe = N[C@@H](CCc1ccccc1)C(=O)O; Cha = N[C@@H](CC1CCCCC1)C(=O)O; Carboxymethyl = O=C(O)C*; NMeA = CN[C@@H](C)C(=O)O; Nle = CCCC[C@H](N)C(=O)O; Orn = NCCC[C@H](N)C(=O)O; Dab = NCC[C@H](N)C(=O)O

The target in assay [1] is T1, PE-labeled human PD-L1-Ig binding to Jurkat cell line over-expressing human PD-1 (Jurkat-PD-1) (Homo sapiens, UniProt Q15116).
T1 construct: expressed in transfected cells; host or cells: Jurkat
Nature of the assay: Jurkat-PD-1 Cell Binding High-Content Screening Assay (CBA): Method 2 (presence and absence of tween-20). As to conditions: Jurkat-PD-1 cells, PE-labeled PD-L1-Ig 20 nM, presence or absence of tween-20 not given. The gist of the method:
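Compounds incubated with Jurkat cells overexpressing human PD-1 for 2 h at 37° C, tested with and without tween-20 to flag aggregation. PE-labeled human PD-L1-Ig (20 nM final) added in DMEM/10% FCS; binding read by high-content imaging.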

For assay [2], the target named is T1, PE-labeled human PD-L1-Ig binding to Jurkat cell line over-expressing human PD-1 (Jurkat-PD-1). The assay can be described thus: Jurkat-PD-1 Cell Binding High-Content Screening Assay (CBA): Method 1. As to conditions: Jurkat-PD-1 cells, PE-labeled PD-L1-Ig.
The mark [3] stands for this setting: head μM, read-out: CBA Method 2 μM.

T1 sequence (Q15116 25-288): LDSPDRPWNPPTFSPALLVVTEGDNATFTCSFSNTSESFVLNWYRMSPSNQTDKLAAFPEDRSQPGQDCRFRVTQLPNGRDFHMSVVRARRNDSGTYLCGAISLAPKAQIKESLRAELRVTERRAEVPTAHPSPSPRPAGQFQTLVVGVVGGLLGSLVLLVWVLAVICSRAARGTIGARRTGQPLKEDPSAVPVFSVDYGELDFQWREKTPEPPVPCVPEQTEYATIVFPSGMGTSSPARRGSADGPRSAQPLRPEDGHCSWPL

`CC(C)C[C@H]1NC(=O)[C@H](C)N(C)C(=O)[C@H](CCC(N)=O)NC(=O)[C@H](Cc2ccc(-c3ccccc3)cc2)NC(=O)[C@H](Cc2ccc(C(=O)O)cc2)NC(=O)[C@H](Cc2cccc(C(F)(F)F)c2)NC(=O)[C@H](CC(=O)O)NC(=O)[C@H](Cc2ccc(OCC(=O)O)cc2)NC(=O)[C@H](CN2CCOCC2)NC(=O)CSC[C@@H](C(=O)N[C@@H](CCN)C(N)=O)NC(=O)[C@H](CCCN)NC(=O)[C@H](C(C)C)NC(=O)[C@H](CC2CCCCC2)NC(=O)[C@H](CCN)NC1=O` [Example 5013] ({CH2CO}-[Ala(morpholin-4-yl)]Y(Carboxymethyl)D[Phe(3-CF3)][Phe(4-COOH)][Bip]Q[NMeA][dL][Dab][Cha]V[Orn]C[Dab]-NH2; thioether N-14): the IC50 in assay [1] (nM, read-out: CBA Method 2) worked out at 4 nM; in assay [2] (nM, read-out: CBA Method 1), 11 nM.
Regarding `CC(=O)Nc1ccc(-c2ccc(C[C@@H]3NC(=O)[C@H](Cc4cccc(C(F)(F)F)c4)NC(=O)[C@H](CC(=O)O)NC(=O)[C@H](Cc4ccc(-c5ccc(C(=O)O)cc5)cc4)NC(=O)[C@H](CN4CCOCC4)NC(=O)CSC[C@@H](C(=O)N[C@@H](CCN)C(N)=O)NC(=O)[C@H](CCN)NC(=O)[C@H](C(C)C)NC(=O)[C@H](CC4CCCCC4)NC(=O)[C@H](CCN)NC(=O)[C@@H](CC(C)C)NC(=O)[C@H](C)N(C)C(=O)[C@H](CCCN)NC(=O)[C@H](Cc4ccc(-c5ccccc5)cc4)NC3=O)cc2)cc1` [Example 5091] ({CH2CO}-[Ala(morpholin-4-yl)][Bip(4'-COOH)]D[Phe(3-CF3)][Bip(4'-NHAc)][Bip][Orn][NMeA][dL][Dab][Cha]V[Dab]C[Dab]-NH2; thioether N-14), the IC50 in assay [1] (setting [3]) is 70 nM; in assay [2] (μM, read-out: CBA Method 1 μM), 90 nM.
For `CC(C)C[C@@H]1NC(=O)[C@H](Cc2c[nH]c3ccccc23)NC(=O)[C@H](CC(N)=O)NC(=O)[C@H](Cc2cccc(OCC(=O)O)c2)NC(=O)[C@H](Cc2ccccc2)NC(=O)CSC[C@@H](C(=O)NCC(N)=O)NC(=O)[C@H](CO)NC(=O)[C@H](C(C)C)NC(=O)[C@H](CC(C)C)NC(=O)[C@H](CC(N)=O)NC(=O)[C@@H](CC(C)C)NC(=O)[C@H](C)N(C)C(=O)[C@H](C(C)C)NC(=O)[C@H](Cc2ccc(-c3ccccc3)cc2)NC1=O` [Example 5032] ({CH2CO}-F[Phe(3-OCH2COOH)]NWL[Bip]V[NMeA][dL]NLVSCG-NH2; thioether N-14) the same measures were 108 nM and 98.7 nM.
`CC(=O)Nc1ccc(-c2ccc(C[C@@H]3NC(=O)[C@H](Cc4cccc(C(F)(F)F)c4)NC(=O)[C@H](CC(=O)O)NC(=O)[C@H](Cc4ccc(C(=O)O)cc4)NC(=O)[C@H](CC(C)C)NC(=O)CSC[C@@H](C(=O)N[C@@H](CCN)C(N)=O)NC(=O)[C@H](CCCN)NC(=O)[C@H](C(C)C)NC(=O)[C@H](CC4CCCCC4)NC(=O)[C@H](CCN)NC(=O)[C@@H](CC(C)C)NC(=O)[C@H](C)N(C)C(=O)[C@H](CCC(N)=O)NC(=O)[C@H](Cc4ccc(-c5ccccc5)cc4)NC3=O)cc2)cc1` [Example 5053] ({CH2CO}-L[Phe(4-COOH)]D[Phe(3-CF3)][Bip(4'-NHAc)][Bip]Q[NMeA][dL][Dab][Cha]V[Orn]C[Dab]-NH2; thioether N-14): the IC50 in assay [1] (setting [3]) came to 7.4 nM; in assay [2] (μM, read-out: CBA Method 1 μM), 9 nM.
For `CC(C)C[C@@H]1NC(=O)[C@H](Cc2c[nH]c3ccccc23)NC(=O)[C@H](CC(N)=O)NC(=O)[C@H](Cc2ccc(O)cc2)NC(=O)[C@H](Cc2ccccc2)NC(=O)CSC[C@@H](C(=O)NCC(N)=O)NC(=O)[C@H](CO)NC(=O)[C@H](C(C)C)NC(=O)[C@H](CC(C)C)NC(=O)[C@H](CC(N)=O)NC(=O)[C@@H](CC(C)C)NC(=O)[C@H](C)N(C)C(=O)[C@H](C(C)C)NC(=O)[C@H](Cc2ccc(-c3ccccc3)cc2)NC1=O` [Example 5025] ({CH2CO}-FYNWL[Bip]V[NMeA][dL]NLVSCG-NH2; thioether N-14) the same measures were 560 nM and 310 nM.
As to `Cc1cccc(C[C@@H]2NC(=O)[C@H](CC(=O)O)NC(=O)[C@H](Cc3ccc(OCC(=O)O)cc3)NC(=O)[C@H](CN3CCOCC3)NC(=O)CSC[C@@H](C(=O)N[C@@H](CCN)C(N)=O)NC(=O)[C@H](CCCN)NC(=O)[C@H](C(C)C)NC(=O)[C@H](CC3CCCCC3)NC(=O)[C@H](CCN)NC(=O)[C@@H](CC(C)C)NC(=O)[C@H](C)N(C)C(=O)[C@H](Cc3ccc(C(=O)O)cc3)NC(=O)[C@H](Cc3ccc(-c4ccccc4)cc3)NC(=O)[C@H](Cc3ccc(C(=O)O)cc3)NC2=O)c1` [Example 5045] ({CH2CO}-[Ala(morpholin-4-yl)]Y(Carboxymethyl)D[Phe(3-Me)][Phe(4-COOH)][Bip][Phe(4-COOH)][NMeA][dL][Dab][Cha]V[Orn]C[Dab]-NH2; thioether N-14), the IC50 in assay [1] (setting [3]) was found to be 1.4 nM; in assay [2] (μM, read-out: CBA Method 1 μM) it was 1.6 nM.
`Cc1cccc(C[C@@H]2NC(=O)[C@H](CC(=O)O)NC(=O)[C@H](Cc3ccc(OCC(=O)O)cc3)NC(=O)[C@H](CN3CCOCC3)NC(=O)CSC[C@@H](C(=O)N[C@@H](CCN)C(N)=O)NC(=O)[C@H](CCCN)NC(=O)[C@H](C(C)C)NC(=O)[C@H](CCc3ccccc3)NC(=O)[C@H](CCN)NC(=O)[C@@H](CC(C)C)NC(=O)[C@H](C)N(C)C(=O)[C@H](CCC(N)=O)NC(=O)[C@H](Cc3ccc(-c4ccccc4)cc3)NC(=O)[C@H](Cc3ccc(C(=O)O)cc3)NC2=O)c1` [Example 5015] ({CH2CO}-[Ala(morpholin-4-yl)]Y(Carboxymethyl)D[Phe(3-Me)][Phe(4-COOH)][Bip]Q[NMeA][dL][Dab][hPhe]V[Orn]C[Dab]-NH2; thioether N-14): the IC50 in assay [1] (setting [3]) was found to be 310 nM; in assay [2] (μM, read-out: CBA Method 1 μM), 210 nM.
Regarding `CC(=O)Nc1ccc(-c2ccc(C[C@@H]3NC(=O)[C@H](Cc4cccc(C(F)(F)F)c4)NC(=O)[C@H](CC(=O)O)NC(=O)[C@H](Cc4ccc(C(=O)O)cc4)NC(=O)[C@H]([C@H](C)N)NC(=O)CSC[C@@H](C(=O)N[C@@H](CCN)C(N)=O)NC(=O)[C@H](CCC(N)=O)NC(=O)[C@H](C(C)C)NC(=O)[C@H](CC4CCCCC4)NC(=O)[C@H](CCN)NC(=O)[C@@H](CC(C)C)NC(=O)[C@H](C)N(C)C(=O)[C@H](Cc4ccc(C(N)=O)cc4)NC(=O)[C@H](Cc4ccc(-c5ccccc5)cc4)NC3=O)cc2)cc1` [Example 5073] ({CH2CO}-[Abu(3S-NH2)][Phe(4-COOH)]D[Phe(3-CF3)][Bip(4'-NHAc)][Bip][Phe(4-CONH2)][NMeA][dL][Dab][Cha]VQC[Dab]-NH2; thioether N-14), the IC50 in assay [1] (setting [3]) was determined as 5 nM; in assay [2] (μM, read-out: CBA Method 1 μM) it was 5.9 nM.
On the same counts, the results for `CCCC[C@@H]1NC(=O)CSC[C@@H](C(=O)N[C@@H](CCN)C(N)=O)NC(=O)[C@H](CCC(=O)O)NC(=O)[C@H](C(C)C)NC(=O)[C@H](CC2CCCCC2)NC(=O)[C@H](CCN)NC(=O)[C@@H](CC(C)C)NC(=O)[C@H](C)N(C)C(=O)[C@H](CCCN)NC(=O)[C@H](Cc2ccc(-c3ccccc3)cc2)NC(=O)[C@H](Cc2ccc(-c3ccc(C(=O)O)cc3)cc2)NC(=O)[C@H](Cc2cccc(C(F)(F)F)c2)NC(=O)[C@H](CC(=O)O)NC(=O)[C@H](Cc2ccc(-c3ccc(C(=O)O)cc3)cc2)NC1=O` [Example 5089] ({CH2CO}-[Nle][Bip(4'-COOH)]D[Phe(3-CF3)][Bip(4'-COOH)][Bip][Orn][NMeA][dL][Dab][Cha]VEC[Dab]-NH2; thioether N-14) are 110 nM and 10 nM.
With `CC(C)C[C@H]1NC(=O)[C@H](C)N(C)C(=O)[C@H](CCC(N)=O)NC(=O)[C@H](Cc2ccc(-c3ccccc3)cc2)NC(=O)[C@H](Cc2ccc(C(=O)O)cc2)NC(=O)[C@H](Cc2cccc(C(F)(F)F)c2)NC(=O)[C@H](CC(=O)O)NC(=O)[C@H](Cc2ccc(OCC(=O)O)cc2)NC(=O)[C@H](CN2CCOCC2)NC(=O)CSC[C@@H](C(=O)N[C@@H](CCN)C(N)=O)NC(=O)[C@H](CCCN)NC(=O)[C@H](C(C)C)NC(=O)[C@H](CC2CCCCC2)NC(=O)[C@H](CCN)NC1=O` [Example 5014] ({CH2CO}-[Ala(morpholin-4-yl)]Y(Carboxymethyl)D[Phe(3-CF3)][Phe(4-COOH)][Bip]Q[NMeA][dL][Dab][Cha]V[Orn]C[Dab]-NH2; thioether N-14), the IC50 turned out to be 40 nM in assay [1] (setting [3]) and 170 nM in assay [2] (μM, read-out: CBA Method 1 μM).
On the same counts, the results for `Cc1cccc(C[C@@H]2NC(=O)[C@H](CC(=O)O)NC(=O)[C@H](Cc3ccc(OCC(=O)O)cc3)NC(=O)[C@H](Cc3cccc(I)c3)NC(=O)CSC[C@@H](C(=O)N[C@@H](CCN)C(N)=O)NC(=O)[C@H](CCCN)NC(=O)[C@H](C(C)C)NC(=O)[C@H](CC3CCCCC3)NC(=O)[C@H](CCN)NC(=O)[C@@H](CC(C)C)NC(=O)[C@H](C)N(C)C(=O)[C@H](CCC(N)=O)NC(=O)[C@H](Cc3ccc(-c4ccccc4)cc3)NC(=O)[C@H](Cc3ccc(C(=O)O)cc3)NC2=O)c1` [Example 5036] ({CH2CO}-[Phe(3-I)]Y(Carboxymethyl)D[Phe(3-Me)][Phe(4-COOH)][Bip]Q[NMeA][dL][Dab][Cha]V[Orn]C[Dab]-NH2; thioether N-14) are 3.1 nM and 4.5 nM.
On the same counts, the results for `Cc1cccc(C[C@@H]2NC(=O)[C@H](CC(=O)O)NC(=O)[C@H](Cc3ccc(OCC(=O)O)cc3)NC(=O)[C@H](CN3CCOCC3)NC(=O)CSC[C@@H](C(=O)N[C@@H](CCN)C(N)=O)NC(=O)[C@H](CCCN)NC(=O)[C@H](C(C)C)NC(=O)[C@H](Cc3ccc(Cl)c(Cl)c3)NC(=O)[C@H](CCN)NC(=O)[C@@H](CC(C)C)NC(=O)[C@H](C)N(C)C(=O)[C@H](CCC(N)=O)NC(=O)[C@H](Cc3ccc(-c4ccccc4)cc3)NC(=O)[C@H](Cc3ccc(C(=O)O)cc3)NC2=O)c1` [Example 5042] ({CH2CO}-[Ala(morpholin-4-yl)]Y(Carboxymethyl)D[Phe(3-Me)][Phe(4-COOH)][Bip]Q[NMeA][dL][Dab][Phe(3,4-Cl2)]V[Orn]C[Dab]-NH2; thioether N-14) are 68.9 nM and 63.9 nM.
